Reference: ChEMBL document CHEMBL3885861, “Open TG-GATES”

Species on record: Rattus norvegicus
Assay: Open TG-GATES - Regimen: Daily Repeat
Format: toxicity, organism-based, Sprague-Dawley
Design: regimen Daily Repeat, gender Male, age 6 weeks
Settings: in vivo, po, 20 mg/kg, route gavage, dose level Middle; for APTT / Bas / Eos / Fbg / Hb / Ht / Lym / MCH / MCHC / MCV / Mono / Neu / PT / Plat / RBC / Ret / WBC: tissue Blood; for LIVER: tissue Liver; for A/G / ALP / ALT / AST / BUN / CRE / Ca / Cl / DBIL / GLC / IP / K / LDH / Na / PL / RALB / TBIL / TC / TG / TP / gamma-GTP: tissue Plasma

## O=[N+]([O-])c1ccc(O)c([N+](=O)[O-])c1 [2,4-DINITROPHENOL]
72 h, time 3 day
  TERMINAL_BW: 243.1 g
  APTT: 15.4 s
  Bas: 0%
  Eos: 1.2%
  Fbg: 283.4 mg/dL
  Hb: 13.6 g/dL
  Ht: 40.4%
  Lym: 77%
  MCH: 22.4 pg
  MCHC: 33.7%
  MCV: 66.4 fL
  Mono: 5%
  Neu: 17%
  PT: 11.4 s
  Plat: 131.6 x10_4/uL
  RBC: 609.2 x10_4/ul
  Ret: 7.3%
  WBC: 124.2 x10_2/uL
  LIVER: 12.1 g
  A/G: 2.4
  ALP: 1368.6 IU/L
  ALT: 36.6 IU/L
  AST: 61.6 IU/L
  BUN: 15.2 mg/dL
  CRE: 0.4 mg/dL
  Ca: 11.4 mg/dL
  Cl: 104.2 meq/L
  DBIL: 0.01 mg/dL
  GLC: 182.6 mg/dL
  IP: 7.3 mg/dL
  K: 4.8 meq/L
  LDH: 128.4 IU/L
  Na: 138.2 meq/L
  PL: 165.4 mg/dL
  RALB: 3.9 g/dL
  TBIL: 0.022 mg/dL
  TC: 93 mg/dL
  TG: 134.6 mg/dL
  TP: 5.6 g/dL
  gamma-GTP: 0.2 IU/L
[…], time 7 day
  TERMINAL_BW: 277.1 g
  APTT: 16.2 s
  Bas: 0%
  Eos: 0.8%
  Fbg: 259.6 mg/dL
  Hb: 13.7 g/dL
  Ht: 40.8%
  Lym: 71.4%
  MCH: 21.3 pg
  MCHC: 33.6%
  MCV: 63.3 fL
  Mono: 9%
  Neu: 19%
  PT: 11.8 s
  Plat: 128 x10_4/uL
  RBC: 644.2 x10_4/ul
  Ret: 5.5%
  WBC: 102 x10_2/uL
  LIVER: 13.6 g
  A/G: 2.3
  ALP: 1592.8 IU/L
  ALT: 33.4 IU/L
  AST: 63 IU/L
  BUN: 18.4 mg/dL
  CRE: 0.4 mg/dL
  Ca: 11.4 mg/dL
  Cl: 105.4 meq/L
  DBIL: 0.012 mg/dL
  GLC: 182 mg/dL
  IP: 7.2 mg/dL
  K: 4.8 meq/L
  LDH: 111.6 IU/L
  Na: 139.4 meq/L
  PL: 149.6 mg/dL
  RALB: 3.9 g/dL
  TBIL: 0.02 mg/dL
  TC: 77.4 mg/dL
  TG: 148.2 mg/dL
  TP: 5.6 g/dL
  gamma-GTP: 0.4 IU/L
[…], time 14 day
  TERMINAL_BW: 351 g
  APTT: 16.3 s
  Bas: 0%
  Eos: 0.6%
  Fbg: 267 mg/dL
  Hb: 13.9 g/dL
  Ht: 41.3%
  Lym: 77.6%
  MCH: 21 pg
  MCHC: 33.8%
  MCV: 62.2 fL
  Mono: 6%
  Neu: 15.8%
  PT: 11.8 s
  Plat: 128 x10_4/uL
  RBC: 663.8 x10_4/ul
  Ret: 4.4%
  WBC: 125.8 x10_2/uL
  LIVER: 17.5 g
  A/G: 2.1
  ALP: 983.2 IU/L
  ALT: 33.4 IU/L
  AST: 64.2 IU/L
  BUN: 19 mg/dL
  CRE: 0.3 mg/dL
  Ca: 11.8 mg/dL
  Cl: 104.4 meq/L
  DBIL: 0.014 mg/dL
  GLC: 180.4 mg/dL
  IP: 6.9 mg/dL
  K: 4.5 meq/L
  LDH: 99.8 IU/L
  Na: 137 meq/L
  PL: 151.2 mg/dL
  RALB: 4 g/dL
  TBIL: 0.022 mg/dL
  TC: 74.2 mg/dL
  TG: 190.4 mg/dL
  TP: 6 g/dL
  gamma-GTP: 0 IU/L
[…], time 28 day
  TERMINAL_BW: 428.8 g
  APTT: 17.1 s
  Bas: 0%
  Eos: 1%
  Fbg: 281.8 mg/dL
  Hb: 14.9 g/dL
  Ht: 44%
  Lym: 82.4%
  MCH: 20 pg
  MCHC: 33.8%
  MCV: 59.1 fL
  Mono: 5%
  Neu: 11.6%
  PT: 12 s
  Plat: 122 x10_4/uL
  RBC: 744.2 x10_4/ul
  Ret: 2.6%
  WBC: 118.2 x10_2/uL
  LIVER: 19.1 g
  A/G: 1.9
  ALP: 871.8 IU/L
  ALT: 31.8 IU/L
  AST: 63.4 IU/L
  BUN: 18.2 mg/dL
  CRE: 0.5 mg/dL
  Ca: 11.2 mg/dL
  Cl: 104.6 meq/L
  DBIL: 0.012 mg/dL
  GLC: 180.8 mg/dL
  IP: 6.6 mg/dL
  K: 4.3 meq/L
  LDH: 117.2 IU/L
  Na: 141 meq/L
  PL: 133.4 mg/dL
  RALB: 4.1 g/dL
  TBIL: 0.016 mg/dL
  TC: 67.6 mg/dL
  TG: 155.6 mg/dL
  TP: 6.2 g/dL
  gamma-GTP: 0.4 IU/L
